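1) Cells in 96-well plates. 2) Compound, 48 h, 5 concentrations. 3) Linear interpolation between surrounding doses. 4) Unreached endpoint = highest concentration. GI50: concentration for 50% inhibition of growth.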 Activity calls are given as the source filed them. No stated cut-off is given here; in the data, active = GI50 up to about 1.1 µM and inactive = higher.
Assays:
Assay in all cases: NCI-60 cell line screen, 48 h
786-0 = test system: 786-0
A498 = test system: A498
A549 = test system: A549
ACHN = test system: ACHN
BT-549 = test system: BT-549
CAKI-1 = test system: CAKI-1
CCRF-CEM = test system: CCRF-CEM
COLO 205 = test system: COLO 205
DU-145 = test system: DU-145
EKVX = test system: EKVX
HCT-116 = test system: HCT-116
HCT-15 = test system: HCT-15
HOP-62 = test system: HOP-62
HOP-92 = test system: HOP-92
HT-29 = test system: HT-29
Hs-578T = test system: Hs-578T
IGROV-1 = test system: IGROV-1
K562 = test system: K562
KM12 = test system: KM12
LOX IMVI = test system: LOX IMVI
M14 = test system: M14
MDA-MB-231 = test system: MDA-MB-231
MDA-MB-435 = test system: MDA-MB-435
MDA-N = test system: MDA-N
MOLT-4 = test system: MOLT-4
Malme-3M = test system: Malme-3M
NCI-H226 = test system: NCI-H226
NCI-H23 = test system: NCI-H23
NCI-H522 = test system: NCI-H522
NCI/ADR-RES = test system: NCI/ADR-RES
OVCAR-3 = test system: OVCAR-3
OVCAR-4 = test system: OVCAR-4
OVCAR-5 = test system: OVCAR-5
OVCAR-8 = test system: OVCAR-8
PC-3 = test system: PC-3
RPMI-8226 = test system: RPMI-8226
RXF 393 = test system: RXF 393
SF-268 = test system: SF-268
SF-295 = test system: SF-295
SK-MEL-28 = test system: SK-MEL-28
SK-MEL-2 = test system: SK-MEL-2
SK-MEL-5 = test system: SK-MEL-5
SK-OV-3 = test system: SK-OV-3
SN12C = test system: SN12C
SNB-19 = test system: SNB-19
SNB-75 = test system: SNB-75
SR = test system: SR
SW-620 = test system: SW-620
T47D = test system: T47D
TK-10 = test system: TK-10
U-251 = test system: U-251
UACC-257 = test system: UACC-257
UACC-62 = test system: UACC-62
UO-31 = test system: UO-31
HCC 2998 = test system: HCC 2998
HL-60 = test system: HL-60
MCF7 = test system: MCF7
NCI-H460 = test system: NCI-H460
SF-539 = test system: SF-539

CCOC(=O)C(C)c1nc2c(Cl)c3ncccc3cc2[nH]c1=O (stereo not drawn)
GI50 (786-0): > 100 µM (inactive)
GI50 (A498): > 100 µM (inactive)
GI50 (A549): 53.2 µM (inactive)
GI50 (ACHN): 22.6 µM (inactive)
GI50 (BT-549): 57 µM (inactive)
GI50 (CAKI-1): 69.5 µM (inactive)
GI50 (CCRF-CEM): 28.2 µM (inactive)
GI50 (COLO 205): > 100 µM (inactive)
GI50 (DU-145): > 100 µM (inactive)
GI50 (EKVX): 31 µM (inactive)
GI50 (HCT-116): 76.9 µM (inactive)
GI50 (HCT-15): 57.3 µM
GI50 (HOP-62): 34.1 µM (inactive)
GI50 (HOP-92): 29.8 µM (inactive)
GI50 (HT-29): 30.7 µM (inactive)
GI50 (Hs-578T): 23.2 µM (inactive)
GI50 (IGROV-1): 62.2 µM (inactive)
GI50 (K562): 34 µM (inactive)
GI50 (KM12): 43.8 µM (inactive)
GI50 (LOX IMVI): > 100 µM (inactive)
GI50 (M14): 44.8 µM (inactive)
GI50 (MDA-MB-231): 79.1 µM (inactive)
GI50 (MDA-MB-435): 84.5 µM (inactive)
GI50 (MDA-N): > 100 µM (inactive)
GI50 (MOLT-4): 31.4 µM (inactive)
GI50 (Malme-3M): > 100 µM (inactive)
GI50 (NCI-H226): 53.3 µM (inactive)
GI50 (NCI-H23): 77.1 µM (inactive)
GI50 (NCI-H522): 50.7 µM (inactive)
GI50 (NCI/ADR-RES): 29.9 µM (inactive)
GI50 (OVCAR-3): 57.3 µM (inactive)
GI50 (OVCAR-4): 57.9 µM (inactive)
GI50 (OVCAR-5): > 100 µM (inactive)
GI50 (OVCAR-8): 36.5 µM (inactive)
GI50 (PC-3): 40.7 µM (inactive)
GI50 (RPMI-8226): 22.1 µM (inactive)
GI50 (RXF 393): 62.8 µM (inactive)
GI50 (SF-268): 41 µM (inactive)
GI50 (SF-295): 79.8 µM (inactive)
GI50 (SK-MEL-28): > 100 µM (inactive)
GI50 (SK-MEL-2): > 100 µM (inactive)
GI50 (SK-MEL-5): 30.5 µM (inactive)
GI50 (SK-OV-3): > 100 µM (inactive)
GI50 (SN12C): > 100 µM (inactive)
GI50 (SNB-19): > 100 µM (inactive)
GI50 (SNB-75): 62.2 µM (inactive)
GI50 (SR): 12.9 µM (inactive)
GI50 (SW-620): 75.2 µM (inactive)
GI50 (T47D): 64.3 µM (inactive)
GI50 (TK-10): 59.7 µM (inactive)
GI50 (U-251): 30.8 µM (inactive)
GI50 (UACC-257): > 100 µM (inactive)
GI50 (UACC-62): 43.5 µM (inactive)
GI50 (UO-31): 23.7 µM (inactive)

CCN(CC)CCNc1n[n+]([O-])c2cc([N+](=O)[O-])ccc2[n+]1[O-]
GI50 (A498): 1.08 µM (active)
GI50 (A549): 0.678 µM (active)
GI50 (BT-549): 1.81 µM (inactive)
GI50 (CAKI-1): 0.204 µM (active)
GI50 (COLO 205): 0.348 µM (active)
GI50 (EKVX): 1.9 µM (inactive)
GI50 (HCT-116): 0.318 µM (active)
GI50 (HOP-62): 0.385 µM (active)
GI50 (HT-29): 0.252 µM (active)
GI50 (Hs-578T): 3.11 µM (inactive)
GI50 (IGROV-1): 0.132 µM (active)
GI50 (KM12): 0.543 µM (active)
GI50 (LOX IMVI): 0.467 µM (active)
GI50 (M14): 0.423 µM (active)
GI50 (MDA-MB-435): 0.826 µM (active)
GI50 (MDA-N): 0.562 µM (active)
GI50 (NCI-H226): 1.87 µM (inactive)
GI50 (NCI/ADR-RES): 1.11 µM (active)
GI50 (OVCAR-3): 0.849 µM (active)
GI50 (OVCAR-4): 0.828 µM (active)
GI50 (OVCAR-5): 1.47 µM (inactive)
GI50 (OVCAR-8): 0.391 µM (active)
GI50 (RXF 393): 1.47 µM (inactive)
GI50 (SF-268): 0.661 µM (active)
GI50 (SK-MEL-28): 5.35 µM (inactive)
GI50 (SK-MEL-5): 0.362 µM (active)
GI50 (SK-OV-3): 0.729 µM (active)
GI50 (SNB-19): 1.28 µM (inactive)
GI50 (U-251): 0.701 µM (active)
GI50 (UO-31): 1.49 µM (inactive)

COc1cc([C@@H]2c3cc4c(cc3[C@@H](c3c(O)cc(O)c5c3O[C@H](c3ccc(O)c(O)c3)[C@@H](O)C5)[C@H]3COC(=O)[C@H]23)OCO4)cc(OC)c1OC
GI50 (786-0): 24 µM (inactive)
GI50 (A498): 1.6 µM (inactive)
GI50 (A549): 29.9 µM (inactive)
GI50 (ACHN): 1.78 µM (inactive)
GI50 (BT-549): > 100 µM (inactive)
GI50 (CAKI-1): 1.97 µM (inactive)
GI50 (CCRF-CEM): 50.7 µM (inactive)
GI50 (COLO 205): 22.7 µM (inactive)
GI50 (DU-145): 1.73 µM (inactive)
GI50 (EKVX): 50.1 µM (inactive)
GI50 (HCC 2998): 1.8 µM (inactive)
GI50 (HCT-116): 21.1 µM (inactive)
GI50 (HCT-15): 39.2 µM
GI50 (HL-60): 38.8 µM (inactive)
GI50 (HOP-62): 1.88 µM (inactive)
GI50 (HOP-92): > 100 µM (inactive)
GI50 (HT-29): 25.5 µM (inactive)
GI50 (Hs-578T): 34 µM (inactive)
GI50 (IGROV-1): 44.6 µM (inactive)
GI50 (K562): 9.31 µM (inactive)
GI50 (KM12): 1.76 µM (inactive)
GI50 (LOX IMVI): 25.6 µM (inactive)
GI50 (M14): 25.1 µM (inactive)
GI50 (MCF7): 1.72 µM (inactive)
GI50 (MDA-MB-231): 1.67 µM (inactive)
GI50 (MDA-MB-435): 1.75 µM (inactive)
GI50 (MOLT-4): 30.5 µM (inactive)
GI50 (Malme-3M): > 100 µM (inactive)
GI50 (NCI-H23): 78 µM (inactive)
GI50 (NCI-H460): 1.87 µM (inactive)
GI50 (NCI-H522): 14.1 µM (inactive)
GI50 (NCI/ADR-RES): 46 µM (inactive)
GI50 (OVCAR-3): 1.64 µM (inactive)
GI50 (OVCAR-4): 1.8 µM (inactive)
GI50 (OVCAR-5): 27.2 µM (inactive)
GI50 (OVCAR-8): 44.4 µM (inactive)
GI50 (PC-3): 1.75 µM (inactive)
GI50 (RPMI-8226): 19.6 µM (inactive)
GI50 (RXF 393): 1.71 µM (inactive)
GI50 (SF-268): 29.7 µM (inactive)
GI50 (SF-295): 1.85 µM (inactive)
GI50 (SF-539): 17.6 µM (inactive)
GI50 (SK-MEL-28): 48.4 µM (inactive)
GI50 (SK-MEL-2): 1.88 µM (inactive)
GI50 (SK-MEL-5): 17 µM (inactive)
GI50 (SK-OV-3): 1.83 µM (inactive)
GI50 (SN12C): 32.2 µM (inactive)
GI50 (SNB-19): 38.4 µM (inactive)
GI50 (SW-620): 32 µM (inactive)
GI50 (T47D): 2.24 µM (inactive)
GI50 (TK-10): 1.79 µM (inactive)
GI50 (U-251): 1.69 µM (inactive)
GI50 (UACC-257): 1.95 µM (inactive)
GI50 (UACC-62): 1.72 µM (inactive)

Source: ChEMBL document CHEMBL1201862, “PubChem BioAssay data set” (2004)
